Experiment [1] has as its target T1, 5-hydroxytryptamine receptor 4 (Homo sapiens, UniProt Q13639). Put plainly: Displacement of [3H]GR-113808 from human recombinant 5-HT4 receptor. For orientation: Loss of bound radioactivity is the signal in a displacement assay; it reports binding, not function.
For experiment [2], the target named is T2, 5-hydroxytryptamine receptor 3A (Homo sapiens, UniProt P46098).
T2 sequence (P46098 whole entry): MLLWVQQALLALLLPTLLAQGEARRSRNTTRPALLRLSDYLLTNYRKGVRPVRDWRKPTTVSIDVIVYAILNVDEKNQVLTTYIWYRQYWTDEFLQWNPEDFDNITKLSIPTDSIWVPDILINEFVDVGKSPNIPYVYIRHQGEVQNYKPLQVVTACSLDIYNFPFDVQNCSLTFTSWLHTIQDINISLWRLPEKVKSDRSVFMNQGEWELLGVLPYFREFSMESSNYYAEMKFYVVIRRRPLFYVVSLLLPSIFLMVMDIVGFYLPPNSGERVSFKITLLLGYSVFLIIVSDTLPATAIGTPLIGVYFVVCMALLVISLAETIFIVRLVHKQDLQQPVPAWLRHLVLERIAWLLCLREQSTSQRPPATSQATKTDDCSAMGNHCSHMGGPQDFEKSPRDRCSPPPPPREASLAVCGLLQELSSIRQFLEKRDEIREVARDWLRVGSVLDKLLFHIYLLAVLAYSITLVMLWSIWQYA
Put plainly: Displacement of [3H]granisetron from human recombinant 5-HT3 receptor expressed in HEK293 cells. It counts as cell-based.

The target of the next experiment is Mu-type opioid receptor (Homo sapiens, UniProt P35372). Kind of experiment: Binding affinity to human mu opioid receptor.
The target of experiment [3] is T1, 5-hydroxytryptamine receptor 4. Put plainly: Agonist activity at human recombinant 5-HT4 receptor. It counts as functional.
Experiment [4] deals with T2, 5-hydroxytryptamine receptor 3A. Kind of experiment: Antagonist activity at human recombinant 5-HT3 receptor expressed in HEK293 cells. It counts as functional, cell-based.

Consider 14 molecules from ChEMBL document CHEMBL1156007, “mu-Opioid/5-HT4 dual pharmacologically active agents-efforts towards an effective opioid analgesic with less GI and respiratory side effects (Part I)” (Bioorg Med Chem Lett, 2009).

The structures appear in SMILES notation.

Mu-type opioid receptor, sequence (P35372 whole entry): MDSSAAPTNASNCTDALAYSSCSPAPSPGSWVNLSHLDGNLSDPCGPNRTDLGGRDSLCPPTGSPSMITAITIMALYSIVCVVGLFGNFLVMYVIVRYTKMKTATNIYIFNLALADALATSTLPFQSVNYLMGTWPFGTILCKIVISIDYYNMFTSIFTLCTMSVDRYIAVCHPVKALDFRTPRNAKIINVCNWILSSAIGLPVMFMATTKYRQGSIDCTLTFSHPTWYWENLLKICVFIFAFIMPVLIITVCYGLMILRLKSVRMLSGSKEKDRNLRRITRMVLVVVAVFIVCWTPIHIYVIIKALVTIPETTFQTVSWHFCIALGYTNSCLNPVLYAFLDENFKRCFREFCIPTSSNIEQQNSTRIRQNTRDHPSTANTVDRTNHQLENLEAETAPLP
T1 sequence (Q13639 whole entry): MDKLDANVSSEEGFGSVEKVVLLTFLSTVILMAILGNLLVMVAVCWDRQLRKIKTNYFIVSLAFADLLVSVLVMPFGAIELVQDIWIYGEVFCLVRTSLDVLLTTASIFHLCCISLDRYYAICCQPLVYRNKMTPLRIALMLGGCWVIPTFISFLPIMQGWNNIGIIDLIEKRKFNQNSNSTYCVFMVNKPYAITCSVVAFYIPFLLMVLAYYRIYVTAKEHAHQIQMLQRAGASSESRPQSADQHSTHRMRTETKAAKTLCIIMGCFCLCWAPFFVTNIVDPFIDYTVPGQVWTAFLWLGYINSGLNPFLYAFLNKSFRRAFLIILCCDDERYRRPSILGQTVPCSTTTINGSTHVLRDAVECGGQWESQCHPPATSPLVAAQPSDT

For orientation: IC50 means the point on the concentration scale where inhibition reaches its midpoint. As to `COc1cc(N)c(Cl)cc1C(=O)NCCN(C)C[C@H]1CCCC[C@]1(O)c1cccc(O)c1`, the IC50 in experiment [1] was over 10000 nM; in experiment [2] it was 3100 nM; on Mu-type opioid receptor, 340 nM.

Regarding `COc1cccc([C@@]2(O)CCCC[C@@H]2CN2CC[C@H](NC(=O)c3cc(Cl)c(N)cc3OC)[C@H](OC)C2)c1`, the IC50 was 6100 nM in experiment [1], 790 nM in experiment [2] and over 10000 nM at Mu-type opioid receptor.

In the case of `COc1cccc([C@]2(O)CCCC[C@H]2CN2CC[C@H](NC(=O)c3cc(Cl)c(N)cc3OC)[C@H](OC)C2)c1`, the figures for the IC50 (in experiment [1]; in experiment [2]; at Mu-type opioid receptor) were 4600 nM, 1700 nM and over 10000 nM, respectively.

For the molecule `COc1cc(N)c(Cl)cc1C(=O)N[C@@H]1CCN(C[C@H]2CCCC[C@]2(O)c2cccc(O)c2)C[C@@H]1OC`, the half-inhibitory concentration (IC50) in experiment [1] is over 10000 nM; in experiment [2], 1600 nM; at Mu-type opioid receptor, over 10000 nM.

One may read the EC50 as the concentration that produces a half-maximal response. As to `COc1cccc([C@]2(O)CCCC[C@H]2CN2CC[C@@H](NC(=O)c3cc(Cl)c(N)cc3OC)[C@@H](OC)C2)c1`, the IC50 in experiment [1] is 3900 nM; in experiment [2] it was 159 nM; at Mu-type opioid receptor, over 10000 nM. The values for the EC50 in experiment [3] and in experiment [4] were 120 nM and over 10000 nM, respectively.

Regarding `COc1cccc([C@@]2(O)CCCC[C@@H]2CN(C)CCNC(=O)c2cc(Cl)c(N)cc2OC)c1`, the IC50 stood at 5000 nM in experiment [1], 3500 nM in experiment [2] and 4500 nM on Mu-type opioid receptor.

Turning to `COc1cc(N)c(Cl)cc1C(=O)NCCN(C)C[C@@H]1CCCC[C@@]1(O)c1cccc(O)c1`, the 50% inhibitory concentration (IC50) was over 10000 nM in experiment [1], 2500 nM in experiment [2] and 5100 nM at Mu-type opioid receptor.

Turning to `COc1cc(N)c(Cl)cc1C(=O)N[C@@H]1CCN(C[C@@H]2CCCC[C@@]2(O)c2cccc(O)c2)C[C@@H]1OC`, the IC50 in experiment [1] was over 10000 nM; in experiment [2], 1400 nM; on Mu-type opioid receptor, over 10000 nM.

Consider `COc1cccc([C@@]2(O)CCCC[C@@H]2CN2CC[C@@H](NC(=O)c3cc(Cl)c(N)cc3OC)[C@@H](OC)C2)c1`, for which the IC50 is over 10000 nM in experiment [1], 2800 nM in experiment [2] and over 10000 nM on Mu-type opioid receptor.

For `COc1cccc([C@]2(O)CCCC[C@H]2CN(C)CCNC(=O)c2cc(Cl)c(N)cc2OC)c1`, the IC50 in experiment [1] was over 10000 nM; in experiment [2], 4900 nM; at Mu-type opioid receptor it was over 10000 nM.

For the molecule `COc1cc(N)c(Cl)cc1C(=O)N[C@H]1CCN(C[C@@H]2CCCC[C@@]2(O)c2cccc(O)c2)C[C@H]1OC`, the IC50 was found to be 9900 nM in experiment [1], 18 nM in experiment [2] and 410 nM at Mu-type opioid receptor. Moreover, the EC50 in experiment [3] worked out at 90 nM.

As for `COc1cc(N)c(Cl)cc1C(=O)N[C@H]1CCN(C[C@H]2CCCC[C@]2(O)c2cccc(O)c2)C[C@H]1OC`, the IC50 in experiment [1] was over 10000 nM; in experiment [2], 390 nM; at Mu-type opioid receptor, over 10000 nM.

On to `COc1cc(N)c(Cl)cc1C(=O)NCCN(C)CC1CCCCC1(O)c1cccc(O)c1` (racemic), for which the IC50 in experiment [1] was over 10000 nM; in experiment [2], 2800 nM; at Mu-type opioid receptor, 190 nM.

As to `COc1cc(N)c(Cl)cc1C(=O)NC1CCNCC1OC` (racemic) [NORCISAPRIDE], the IC50 in experiment [1] came to 19 nM; in experiment [2], 1600 nM. Besides, the figures for the EC50 in experiment [3] and in experiment [4] were 290 nM and 2300 nM, respectively.
